Experimental data reported in patent US11466024B2, “Bicylic compound acting as an inhibitor” (CHIA TAI TIANQING PHARMACEUTICAL GROUP CO., LTD., priority 2017, dated 2022).
Where two headings read alike, the source gives them in different places.

Columns and labels:
[1] = molecular target: T1, RORC2-LBD (Homo sapiens, UniProt P51449); assay: In vitro test for inhibitory activity on RORγ: TR-FRET screening (RORC2-LBD / SRC1 peptide interaction); format: biochemical; settings: Value of the concentration required for 50% inhibition (EC50) of RORγ, 15 nM RORc-LBD, 200 nM SRC1 peptide, 4° C. overnight
T1 sequence (P51449 269-508 limits assumed): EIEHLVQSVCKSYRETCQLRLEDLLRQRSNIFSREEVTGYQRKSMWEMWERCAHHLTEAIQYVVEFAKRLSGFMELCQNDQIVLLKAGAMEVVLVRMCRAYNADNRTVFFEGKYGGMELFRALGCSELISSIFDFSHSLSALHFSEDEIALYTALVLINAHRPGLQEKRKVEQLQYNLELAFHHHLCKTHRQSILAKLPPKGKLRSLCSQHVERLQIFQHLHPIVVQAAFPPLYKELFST
Source text: The compounds of the present application was able to regulate (inhibit) the bioactivity of the nuclear receptor RORγ, and the strength of this regulatory (inhibitory) effect could be evaluated by a TR-FRET (time-resolved fluorescence resonance energy transfer) screening system. Nuclear receptor cofactors (co-activators and co-inhibitors) could regulate the transcription of a target gene by the interaction with nuclear receptors. If a ligand (test compound) affected the interaction between the nuclear receptors and the cofactors, this ligand (test compound) was able to regulate the transcription of the corresponding gene.
This method adopted the TR-FRET (time-resolved fluorescence resonance energy transfer) technique to determine the ability of a compound to regulate the interaction between the polypeptide indirectly bound to APC […] (namely, APC was indirectly bound to the polypeptide by binding to Streptavidin and biotin) and RORC2-LBD linked to a europium (Eu)-labeled anti-His antibody (Perkin Elmer #AD0111). In the absence of the compound, RORC2 could bind to an APC-modified polypeptide. If the compound was an agonist, it could enhance the interaction between RORC2 and the APC-modified polypeptide after binding to RORC2. On the contrary, if the compound was an inverse agonist, it could inhibit the interaction between RORC2 and the APC-modified polypeptide after binding to RORC2. When the APC-modified polypeptide and the Eu-labeled anti-His antibody-RORC2-LBD complex approached to each other and the distance therebetween was within a certain distance, energy transfer could occur and a TR-FRET signal was generated.
A buffer solution comprising 50 mM Tris (pH 7.0), 50 mM KCl, 1 mM Na-EDTA, 0.01% BSA (0.1 mg/ml), and 0.1 mM DTT was freshly formulated prior to the experiment.
2.3 Formulation of a RORγ-containing working solution. Prior to the test, a working solution containing 1.67 nM Eu/anti-His and 0.75 μl/well of SF9 cell lysate was freshly formulated, and was placed on ice before use. 25.05 nM of RORγ was added to the working solution.
2.5 Ten concentration gradients were set for each test compound, and duplicate wells were set for each concentration. The formulating method of the test compounds was as follows: […]
2) 15 μl of the RORγ-containing working solution was added to columns 1 to 21 of the tested 384-well plate (the final concentration of Eu/anti-His was 1 nM, and the final concentration of RORg was 15 nM); and […]
9) data analysis was performed using the ratio of the numerical value detected at an emission wavelength of 665 nm to the numerical value detected at an emission wavelength of 615 nm. […]

[2] = Pharmacokinetic evaluation in mice after single IV and PO administration; format: in vivo; design: AUC(0-t) / AUC(0-inf): concentration or dose not given beside the values; settings: Balb/c mice, plasma; for MRT inf: read-out: MRT0-inf; for MRT last: read-out: MRT0-last
Description: Balb/c mice (female, 15 to 30 g, 7- to 9-week old, Shanghai Lingchang) were used to test in vivo pharmacokinetics of compounds. The experimental method was as follows.
The pharmacokinetic characteristics of the compounds were tested by standard protocols after the compounds were administered to rodents by intravenous injection and oral administration. In the experiment, candidate compounds were formulated into clear solutions and administered to mice by a single intravenous injection and a single oral administration. The vehicle for intravenous injection (IV) was a mixed solvent of 5% of DMSO and 95% of 10% Cremophor EL, and the vehicle for oral administration (PO) was a mixed solvent of 1% tween 80, 9% PEG400 and 90% water. Whole blood samples within 48 hours were collected, and centrifuged at 3000 g at 4° C. for 15 minutes. The supernatant was separated to obtain the plasma sample, to which an acetonitrile solution containing an internal standard was added to precipitate the proteins, and the volume of the acetonitrile solution was 20 times that of the plasma sample. The supernatant was obtained by centrifugation, an equal volume of water was added thereto, and the mixture was centrifuged again to get the supernatant for sample injection. Plasma concentrations were quantitatively analyzed by an LC-MS/MS analytical method, and pharmacokinetic parameters, such as peak concentration, peak time, clearance rate, half-life, area under the concentration-time curve, and bioavailability, were calculated.
Of these, “10% Cremophor EL” referred to a deionized aqueous solution of Cremophor EL with a volume concentration of 10%. For example, taking the formulation of a 100 ml solution as an example, 10 ml Cremophor EL was taken and deionized water was added thereto, the mixture was well stirred, and then deionized water was added until the total volume was 100 ml. “Mixed solvent of 5% of DMSO and 95% of 10% Cremophor EL” referred to a mixed solvent comprised of DMSO and 10% Cremophor EL, in which […], and 10% Cremophor EL accounted for 95% of the volume of the mixed solvent. “Mixed solvent of 1% tween 80, 9% PEG400 and 90% water” meant that the volumes of tween 80, PEG400 and water accounted for 1%, 9% and 90% of the volume of the mixed solvent, respectively.

For CCS(=O)(=O)c1ccc(CNC(=O)c2cc3c(s2)C(C(C)C)N(C[C@H]2CC[C@H](C(F)(F)F)CC2)C3)nc1 (single isomer, unassigned) [Example 1], the EC50 [1] was less than 100 nM, the AUCExtra ([2]; IV) was 6.28% and the AUMCExtra ([2]; IV) was 27.8%. The Tlast ([2]; IV) was 24.0 h, the AUCExtra ([2]; PO) was 12.1% and the AUMCExtra ([2]; PO) was 41.3%. It also gave a Tlast ([2]; PO) of 24.0 h, an AUC(0-inf) ([2]; female, mouse, IV) of 3.92 µM·h and an AUC(0-t) ([2]; female, mouse, IV) of 3.67 µM·h. For the same compound, the C0 ([2]; female, mouse, IV) was 955 nM, the clearance ([2]; female, mouse, IV) was 7.62 mL/min/kg and the half-life ([2]; female, mouse, IV) was 6.84 h. It also gave an MRT inf ([2]; female, mouse, IV) of 7.66 h, an MRT last ([2]; female, mouse, IV) of 5.91 h and a Vd ([2]; female, mouse, IV, read-out: Vdss) of 3.5 L/kg. It also gave an AUC(0-inf) ([2]; female, mouse, PO) of 35.1 µM·h, an AUC(0-t) ([2]; female, mouse, PO) of 30.9 µM·h and a Cmax ([2]; female, mouse, PO) of 3520 nM. The Tmax ([2]; female, mouse, PO) was 1 h, the bioavailability ([2]; female, mouse, PO) was 89.7% and the half-life ([2]; female, mouse, PO) was 8.7 h. For the same compound, the MRT inf ([2]; female, mouse, PO) was 10.8 h and the MRT last ([2]; female, mouse, PO) was 7.19 h.
